The target of one assay is T1, Endothelin-1 receptor (Sus scrofa, UniProt Q29010).
T1 sequence (Q29010 whole entry): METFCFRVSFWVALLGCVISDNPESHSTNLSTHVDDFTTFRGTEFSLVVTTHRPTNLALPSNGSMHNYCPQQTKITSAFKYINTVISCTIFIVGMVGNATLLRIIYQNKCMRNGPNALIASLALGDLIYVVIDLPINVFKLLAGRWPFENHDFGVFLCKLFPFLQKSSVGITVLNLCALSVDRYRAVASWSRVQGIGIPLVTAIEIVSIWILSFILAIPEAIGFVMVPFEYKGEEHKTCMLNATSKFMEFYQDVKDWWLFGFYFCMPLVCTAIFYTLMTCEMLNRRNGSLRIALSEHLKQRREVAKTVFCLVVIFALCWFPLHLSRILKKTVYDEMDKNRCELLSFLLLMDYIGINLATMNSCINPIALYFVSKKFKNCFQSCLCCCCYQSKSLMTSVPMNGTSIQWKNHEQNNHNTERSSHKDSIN
Briefly: Displacement of [125]ET1 from ETA receptor in pig thoracic aorta.

Assay [1] concerns the target T2, Endothelin receptor type B (Rattus norvegicus) (UniProt P21451).
T2 sequence (whole entry): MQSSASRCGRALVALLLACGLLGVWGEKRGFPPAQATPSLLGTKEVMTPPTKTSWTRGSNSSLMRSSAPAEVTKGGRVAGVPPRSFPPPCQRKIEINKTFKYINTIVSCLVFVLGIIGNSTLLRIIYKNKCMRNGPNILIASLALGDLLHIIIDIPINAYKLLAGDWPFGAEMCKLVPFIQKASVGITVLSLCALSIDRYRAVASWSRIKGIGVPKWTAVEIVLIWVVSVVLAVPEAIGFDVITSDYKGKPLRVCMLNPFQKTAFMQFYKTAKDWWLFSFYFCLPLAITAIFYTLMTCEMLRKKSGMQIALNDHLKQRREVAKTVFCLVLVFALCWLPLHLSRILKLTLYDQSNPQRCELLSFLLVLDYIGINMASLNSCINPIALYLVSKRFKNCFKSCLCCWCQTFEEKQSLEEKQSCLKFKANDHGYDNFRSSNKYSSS
Briefly: Displacement of [125]ET3 from ETB receptor in Sprague-Dawley rat cerebellum at 70 uM.

Assay [2] relates to Bacillus subtilis. Description: Antibacterial activity against Bacillus subtilis ATCC 6633 at 50 ug/mL after 18 to 24 hrs by twofold dilution test. Type of assay: functional, organism-based.
For assay [3], the target named is T3, Endothelin-1 receptor (Sus scrofa) (UniProt Q29010).
T3 sequence (whole entry): T1 sequence (Q29010 whole entry)
Briefly: Displacement of [125]ET1 from ETA receptor in pig thoracic aorta at 70 uM. Type of assay: tissue-based.

Assay [4] relates to Bacillus subtilis. Briefly: Antibacterial activity against Bacillus subtilis ATCC 6633 after 18 to 24 hrs by twofold dilution test. Format: functional.

Converted amounts (≈) assume the structure as drawn. The source made the active and inactive calls. No cut-off for these calls is given here.

One may read the IC50 as the midpoint of a concentration-inhibition curve. A lower IC50 goes with greater potency in that assay. The inhibition is the drop in the measured response relative to a control, in per cent. High values mean a strong effect, low ones a weak effect. For `O=C1NCCc2ccc(c(Br)c2)Oc2cc(ccc2O)CCNC(=O)/C(=N/O)Cc2cc(Br)c(OS(=O)(=O)O)c(c2)Oc2c(Br)cc(cc2Br)C/C1=N\O`, the IC50 at Endothelin-1 receptor is 39 µM. The inhibition in assay [1] was 27%. Also, the outcome with Bacillus subtilis [2] was inactive.
What is called MIC is the lowest concentration that inhibits growth of the organism. High values mean weaker potency, low ones greater potency. In the case of `O=C1NCCc2ccc(c(Br)c2)Oc2cc(ccc2O)CCNC(=O)/C(=N/O)Cc2cc(Br)c(O)c(c2)Oc2c(Br)cc(cc2Br)C/C1=N\O` [BASTADIN 13], the figures for the inhibition in assay [3] and in assay [1] were 32% and 30%, respectively. Also, the MIC with Bacillus subtilis [4] is 6 mg/L (≈ 6.38 µM).

Values taken from ChEMBL document CHEMBL1147376, “Isolation and structure elucidation of 34-sulfatobastadin 13, an inhibitor of the endothelin A receptor, from a marine sponge of the genus Ianthella” (J Nat Prod, 1993).
